US20240174723A1, “STAPLED ANTIMICROBIAL PEPTIDES (STAMPS) AND USES THEREOF” (Lytica Therapeutics, Inc., priority 2021, published 2024)
Values after ≈ are worked out from the molar mass of the structure shown. Positions of bridges follow the written chain, without caps; N, C: chain ends. Non-standard residues stand in square brackets, D forms with d. Residues, ends and D or L forms follow the SMILES beside them. S5 = C=CCCC[C@](C)(N)C(=O)O; Dab = NCC[C@H](N)C(=O)O; Dap = NC[C@H](N)C(=O)O

Columns and labels:
E. coli = format: cell-based, Escherichia coli
Description: (§1) Antimicrobial Activity Assay: The following microbroth dilution protocol was adapted from CLSI to determine the minimum inhibitory concentration (MIC) of StAMPs. Briefly, Mueller-Hinton broth (MHB) or cation-adjusted Mueller-Hinton broth (MHB II) was prepared and autoclaved. Then, a colony of bacterial cells was picked and grown overnight in broth at 37° C. and then diluted and allowed to grow again for 3-4 hours. Serial dilutions of peptide stocks in water (10 μl) were prepared using clear round-bottom polypropylene 96-well plates. Then 90 μl of bacteria in broth was added to give a final inoculum of 5×10^5 CFU/ml. The plates were then covered with porous tape to reduce evaporation and incubated for 20-24 hours at 37° C. The MIC was the minimum peptide concentration at which no visible bacterial growth was observed.
(§2) Renal toxicity was measured after 90 minutes of incubation, while liver toxicity was measured after 48 hours of incubation with StAMPs. N/A=not tested. The following apply to all peptides (i.e., StAMPs) listed in Tables A-C: Crosslinks (X^1—X^2 and X^3—X^4): (alk); N-terminus: —NH2; C-terminus: amidated with —NH2; counterion: Cl^−. The following apply to all peptides (i.e., StAMPs) listed in Table D: Crosslinks (X^1—X^2 and X^3—X^4): (alk); N-terminus: —NH2; C-terminus: as shown in table; counterion: Cl^−.

A. baumannii = format: cell-based, Acinetobacter baumannii
Description: as §1, §2

P. aeruginosa = format: cell-based, Pseudomonas aeruginosa
Description: as §1, §2
StAMP Micelle Formulation: DSPE-MPEG(2000) was suspended in buffered saline at 50-100 mg/mL overnight. StAMP stock solutions at 5-20 mg/mL in buffered saline were prepared and equal volumes of micelle and StAMP stock solution were mixed at the desired StAMP:Lipid ratio. Suspensions were allowed to sit for 5-10 minutes at room temperature before being used in in vitro and in vivo assays. […]

K. pneumoniae = format: cell-based, Klebsiella pneumoniae
Description: as §1, §2

S. aureus = format: cell-based, Staphylococcus aureus
Description: as §1, §2

in vitro = format: cell-based; details: human, Inhibitory Concentration at 50% Cytotoxicity (IC50) Human Liver Cells (HepG2)
Description: Cell culture: RPTEC were maintained in MEM media supplemented with growth factors. HEPG2 cell line was maintained in Eagle's Minimum Essential Medium (EMEM) supplemented with fetal bovine serum to a final concentration of 10%.
48 hours cytotoxicity assay: Cells were plated in a 96-well format, and after 4 hour incubation to allow attachment, serial dilutions of StAMPs from a 5 mg/mL water stock, or vehicle, were then added to the cells in a final volume of 100 μl. After incubating at 37° C. for 48 hours, 100 μl of CellTiter-Glo® reagent was added to the cells, and the plates were incubated 10 minutes at room temperature. Luminescence was then measured on a microplate reader.
as §2

SMILES | Minimum Inhibitory Concentration (MIC) E. coli (E. coli) [µg/mL] | Minimum Inhibitory Concentration (MIC) A. baumannii (A. baumannii) [µg/mL] | Minimum Inhibitory Concentration (MIC) P. aeruginosa (P. aeruginosa) [µg/mL] | Minimum Inhibitory Concentration (MIC) K. pneumoniae (K. pneumoniae) [µg/mL] | Minimum Inhibitory Concentration (MIC) S. aureus (S. aureus) [µg/mL] | IC50 at 48 hours (in vitro) [µg/mL]
CC(C)[C@@H]1NC(=O)[C@@](C)(NC(=O)[C@H](C)NC(=O)[C@H](CCCCN)NC(=O)CNC(=O)[C@H](Cc2ccccc2)NC(=O)[C@H](CCCCN)NC(=O)[C@H](CCCCN)NC(=O)[C@H](CCN)NC(=O)[C@H](CCCCN)NC(=O)[C@H](CCCCN)NC(=O)[C@]2(C)CCCC=CCCC[C@](C)(NC(=O)CN)C(=O)NCC(=O)N[C@@H](CCCCN)C(=O)N[C@@H](Cc3ccccc3)C(=O)N2)CCCC=CCCC[C@@](C)(C(=O)N[C@@H](C)C(=O)N[C@@H](CCCCN)C(=O)N[C@@H](CCCCN)C(N)=O)NC(=O)[C@H](CCC(=O)O)NC(=O)CNC1=O [compound 42] (H-G[S5]GKF[S5]KK[Dab]KKFGKA[S5]VGE[S5]AKK-NH2; staple 2-6, 16-20) | 4 | 2 | 8 | 16 | 32 | 194 (≈ 76.5 µM)
CC(C)[C@@H]1NC(=O)[C@@](C)(NC(=O)[C@H](C)NC(=O)[C@H](CCCCN)NC(=O)CNC(=O)[C@H](Cc2ccccc2)NC(=O)[C@H](CCCCN)NC(=O)[C@H](CCN)NC(=O)[C@H](CCCCN)NC(=O)[C@H](CCCCN)NC(=O)[C@H](CCCCN)NC(=O)[C@]2(C)CCCC=CCCC[C@](C)(NC(=O)CN)C(=O)NCC(=O)N[C@@H](CCCCN)C(=O)N[C@@H](Cc3ccccc3)C(=O)N2)CCCC=CCCC[C@@](C)(C(=O)N[C@@H](C)C(=O)N[C@@H](CCCCN)C(=O)N[C@@H](CCCCN)C(N)=O)NC(=O)[C@H](CCC(=O)O)NC(=O)CNC1=O [compound 43] (H-G[S5]GKF[S5]KKK[Dab]KFGKA[S5]VGE[S5]AKK-NH2; staple 2-6, 16-20) | 4 | 2 | 4 | 8 | 32 | 127 (≈ 50.1 µM)
CC(C)[C@@H]1NC(=O)[C@@](C)(NC(=O)[C@H](C)NC(=O)[C@H](CCCCN)NC(=O)CNC(=O)[C@H](Cc2ccccc2)NC(=O)[C@H](CCCCN)NC(=O)[C@H](CCCCN)NC(=O)[C@H](CCCCN)NC(=O)[C@H](CCCCN)NC(=O)[C@H](CCCCN)NC(=O)[C@]2(C)CCCC=CCCC[C@](C)(NC(=O)CN)C(=O)NCC(=O)N[C@@H](CCCCN)C(=O)N[C@@H](Cc3ccccc3)C(=O)N2)CCCC=CCCC[C@@](C)(C(=O)N[C@@H](C)C(=O)N[C@@H](CCN)C(=O)N[C@@H](CCCCN)C(N)=O)NC(=O)[C@H](CCC(=O)O)NC(=O)CNC1=O [compound 44] (H-G[S5]GKF[S5]KKKKKFGKA[S5]VGE[S5]A[Dab]K-NH2; staple 2-6, 16-20) | 2 | 2 | 4 | 6 | 32 | 87 (≈ 34.3 µM)
CC(C)[C@@H]1NC(=O)[C@@](C)(NC(=O)[C@H](C)NC(=O)[C@H](CCCCN)NC(=O)CNC(=O)[C@H](Cc2ccccc2)NC(=O)[C@H](CCCCN)NC(=O)[C@H](CCCCN)NC(=O)[C@H](CCCCN)NC(=O)[C@H](CCCCN)NC(=O)[C@H](CCCCN)NC(=O)[C@]2(C)CCCC=CCCC[C@](C)(NC(=O)CN)C(=O)NCC(=O)N[C@@H](CN)C(=O)N[C@@H](Cc3ccccc3)C(=O)N2)CCCC=CCCC[C@@](C)(C(=O)N[C@@H](C)C(=O)N[C@@H](CCCCN)C(=O)N[C@@H](CCCCN)C(N)=O)NC(=O)[C@H](CCC(=O)O)NC(=O)CNC1=O [compound 45] (H-G[S5]G[Dap]F[S5]KKKKKFGKA[S5]VGE[S5]AKK-NH2; staple 2-6, 16-20) | 2 | 2 | 4 | 4 | >64 | 104 (≈ 41.2 µM)
CC(C)[C@@H]1NC(=O)[C@@](C)(NC(=O)[C@H](C)NC(=O)[C@H](CCCCN)NC(=O)CNC(=O)[C@H](Cc2ccccc2)NC(=O)[C@H](CCCCN)NC(=O)[C@H](CCCCN)NC(=O)[C@H](CCCCN)NC(=O)[C@H](CCCCN)NC(=O)[C@H](CN)NC(=O)[C@]2(C)CCCC=CCCC[C@](C)(NC(=O)CN)C(=O)NCC(=O)N[C@@H](CCCCN)C(=O)N[C@@H](Cc3ccccc3)C(=O)N2)CCCC=CCCC[C@@](C)(C(=O)N[C@@H](C)C(=O)N[C@@H](CCCCN)C(=O)N[C@@H](CCCCN)C(N)=O)NC(=O)[C@H](CCC(=O)O)NC(=O)CNC1=O [compound 46] (H-G[S5]GKF[S5][Dap]KKKKFGKA[S5]VGE[S5]AKK-NH2; staple 2-6, 16-20) | 2 | 2 | 4 | 8 | 64 | 299 (≈ 119 µM)
CC(C)[C@@H]1NC(=O)[C@@](C)(NC(=O)[C@H](C)NC(=O)[C@H](CCCCN)NC(=O)CNC(=O)[C@H](Cc2ccccc2)NC(=O)[C@H](CCCCN)NC(=O)[C@H](CCCCN)NC(=O)[C@H](CCCCN)NC(=O)[C@H](CCCCN)NC(=O)[C@H](CCCCN)NC(=O)[C@]2(C)CCCC=CCCC[C@](C)(NC(=O)CN)C(=O)NCC(=O)N[C@@H](CCCCN)C(=O)N[C@@H](Cc3ccccc3)C(=O)N2)CCCC=CCCC[C@@](C)(C(=O)N[C@@H](C)C(=O)N[C@@H](CCCCN)C(=O)N[C@@H](CCCCN)C(=O)NCC(=O)N[C@@H](CCC(=O)O)C(N)=O)NC(=O)[C@H](CCC(=O)O)NC(=O)CNC1=O [compound 53] (H-G[S5]GKF[S5]KKKKKFGKA[S5]VGE[S5]AKKGE-NH2; staple 2-6, 16-20) | 8 | 4 | 16 | 32 | >64 | 211 (≈ 76.7 µM)
CC(C)[C@@H]1NC(=O)[C@@](C)(NC(=O)[C@H](C)NC(=O)[C@H](CCCCN)NC(=O)CNC(=O)[C@H](Cc2ccccc2)NC(=O)[C@H](CCCCN)NC(=O)[C@H](CCCCN)NC(=O)[C@H](CCCCN)NC(=O)[C@H](CCCCN)NC(=O)[C@H](CCCCN)NC(=O)[C@]2(C)CCCC=CCCC[C@](C)(NC(=O)CN)C(=O)NCC(=O)N[C@@H](CCCCN)C(=O)N[C@@H](Cc3ccccc3)C(=O)N2)CCCC=CCCC[C@@](C)(C(=O)N[C@@H](C)C(=O)N[C@@H](CCCCN)C(=O)N[C@@H](CCCCN)C(=O)NCC(=O)NCC(=O)NCC(=O)N[C@@H](CCC(=O)O)C(N)=O)NC(=O)[C@H](CCC(=O)O)NC(=O)CNC1=O [compound 54] (H-G[S5]GKF[S5]KKKKKFGKA[S5]VGE[S5]AKKGGGE-NH2; staple 2-6, 16-20) | 8 | 4 | 8 | 32 | >64 | 262 (≈ 91.5 µM)
